Experimental data taken from patent US9604983B2, “Herbicidal 3-(2-benzyloxyphenyl)-2,4-dihydroxy-1,8-naphthyridine derivatives” (SYNGENTA LIMITED, priority 2013, dated 2017).

Legend:
Assay in all cases: Post-emergence efficacy, glasshouse pot test
Format in all cases: in vivo
Conditions in all cases: post-emergence application at 1000 g/ha; evaluated after 13 days; five point scale
[1] = test system: Alopecurus myosuroides (ALOMY)
Description: (§1) B1 Post-emergence Efficacy Seeds of a variety of test species are sown in standard soil in pots:—Solanum nigrum (SOLNI), Amaranthus retoflexus (AMARE), Setaria faberi (SETFA), Alopecurus myosuroides (ALOMY), Echinochloa crus-galli (ECHCG), Ipomoea hederacea (IPOHE). After 8 days cultivation (post-emergence) under controlled conditions in a glasshouse (at 24/16° C., day/night; 14 hours light; 65% humidity), the plants are sprayed with an aqueous spray solution derived from the formulation of the technical active ingredient in acetone/water (50:50) solution containing 0.5% Tween 20 (polyoxyethelyene sorbitan monolaurate, CAS RN 9005-64-5). Compounds are applied at 1000 g/ha. The test plants are then grown in a glasshouse under controlled conditions in a glasshouse (at 24/16° C., day/night; 14 hours light; 65% humidity) and watered twice daily. After 13 days, the test is evaluated for the percentage damage caused to the plant. The biological activities are shown below in Table 13, on a five point scale (5=80-100%; 4=60-79%; 3=40-59%; 2=20-39%; 1=0-19%).

[2] = test system: Amaranthus retoflexus (AMARE)
Description: as §1

[3] = test system: Echinochloa crus-galli (ECHCG)
Description: as §1

[4] = test system: Ipomoea hederacea (IPOHE)
Description: as §1

Setaria faberi (SETFA) = test system: Setaria faberi (SETFA)
Description: as §1

Solanum nigrum (SOLNI) = test system: Solanum nigrum (SOLNI)
Description: as §1

SMILES	percentage damage caused to the plant, ALOMY [1]	percentage damage caused to the plant, AMARE [2]	percentage damage caused to the plant, ECHCG [3]	percentage damage caused to the plant, IPOHE [4]	percentage damage caused to the plant, SETFA (Setaria faberi (SETFA))	percentage damage caused to the plant, SOLNI (Solanum nigrum (SOLNI))
O=c1c(-c2c(Cl)ccc(Cl)c2OCc2ccc(C(F)(F)F)cc2)c(O)c2cccnc2n1CC(F)F [Compound 4.006]	2 (2=20-39%)	5 (5=80-100%)	2 (2=20-39%)	5 (5=80-100%)	2 (2=20-39%)	5 (5=80-100%)
O=c1c(-c2c(F)ccc(Cl)c2OCc2ccccc2)c(O)c2nccnc2n1CC(F)F [Compound 8.003]	3 (3=40-59%)	5 (5=80-100%)	4 (4=60-79%)	5 (5=80-100%)	5 (5=80-100%)	5 (5=80-100%)
CC(C)C(=O)Oc1c(-c2c(Cl)ccc(Cl)c2OCc2ccc(C(F)(F)F)cc2)c(=O)n(CC(F)F)c2ncccc12 [Compound 3.006]	1 (1=0-19%)	5 (5=80-100%)	1 (1=0-19%)	5 (5=80-100%)	1 (1=0-19%)	5 (5=80-100%)
C#CCn1c(=O)c(-c2cccc(Cl)c2OCc2ccccc2)c(O)c2nccnc21 [Compound 10.003]	4 (4=60-79%)	5 (5=80-100%)	5 (5=80-100%)	5 (5=80-100%)	5 (5=80-100%)	5 (5=80-100%)
C#CCn1c(=O)c(-c2c(Cl)ccc(Cl)c2OCc2ccc(C)cc2)c(OC(=O)C(C)C)c2cccnc21 [Compound 1.004]	1 (1=0-19%)	5 (5=80-100%)	3 (3=40-59%)	3 (3=40-59%)	1 (1=0-19%)	5 (5=80-100%)
COc1ccnc2c1c(OC(C)=O)c(-c1c(F)ccc(Cl)c1OCc1ccccc1)c(=O)n2CC(F)F [Compound 7.002]	4 (4=60-79%)	5 (5=80-100%)	5 (5=80-100%)	5 (5=80-100%)	5 (5=80-100%)	5 (5=80-100%)
O=c1c(-c2c(Cl)ccc(Cl)c2OCc2ccc(Cl)cc2)c(O)c2cccnc2n1CC(F)F [Compound 4.003]	1 (1=0-19%)	5 (5=80-100%)	2 (2=20-39%)	5 (5=80-100%)	1 (1=0-19%)	5 (5=80-100%)
C#CCn1c(=O)c(-c2c(Cl)ccc(Cl)c2OCc2ccc(Cl)cc2)c(O)c2cccnc21 [Compound 2.003]	3 (3=40-59%)	5 (5=80-100%)	5 (5=80-100%)	5 (5=80-100%)	4 (4=60-79%)	5 (5=80-100%)
C#CCn1c(=O)c(-c2c(Cl)ccc(Cl)c2OCc2ccccc2)c(OC(=O)C(C)C)c2nccnc21 [Compound 1.008]	5 (5=80-100%)	5 (5=80-100%)	5 (5=80-100%)	5 (5=80-100%)	5 (5=80-100%)	5 (5=80-100%)
C#CCn1c(=O)c(-c2c(F)ccc(Cl)c2OCc2ccccc2)c(O)c2nccnc21 [Compound 6.003]	4 (4=60-79%)	5 (5=80-100%)	4 (4=60-79%)	5 (5=80-100%)	5 (5=80-100%)	5 (5=80-100%)
